Data published in patent US10195156B2, “Compounds and compositions for intracellular delivery of agents” (ModernaTX, Inc., priority 2015, dated 2019).

Assays:
[1] = tested on: Luc expression; assay: Luc expression in CD-1 mice (AUC relative to MC3); assay type: in vivo; conditions: Table 7c
Experimental: FIG. 15 is a graph summarizing luciferase expression levels at 6 h after administration of nanoparticle compositions containing compounds of the disclosure to CD-1 mice at a dose of 0.5 mpk. Total light flux values were acquired via body luminescent imaging (BLI) 6 h after administration. In this Figure, the numbers 1-7 and 10 refer to the compositions containing Compounds 4-10 and MC3 respectively.
In contrast, hEPO expression in rats induced by administration of a nanoparticle composition including a compound according to one of formulae (I), (Ia1)-(Ia6), (Ib), (II), (IIa), (III), and (IIIa) was substantially […] than that measured for MC3. […] Table 7c and 7d show additional protein expressions and clearance data from compositions with various compounds disclosed herein as compared to with MC3.

[2] = tested on: modified luciferase (Luc) expression; assay: Expression upon intramuscular administration of Luc mRNA and H10 mRNA formulations; assay type: in vivo; conditions: 6 hours after intramuscular administration
Experimental: Sample formulations including both modified luciferase (Luc) mRNA and H10 mRNA were prepared and administered intramuscularly at day 1 and day 21 and the resulting expression and immunogenicity were evaluated simultaneously. Formulations including compounds according to formula (20-I) were prepared and administered at doses of 0.001 and 0.01 mpk (e.g., doses of 0.0005 mpk of a formulation including Luc mRNA and a formulation including H10 mRNA or doses of 0.005 mpk of a formulation including Luc mRNA and a formulation including H10 mRNA). As shown in Table 20-4, the total flux was higher upon administration of the second dose for each composition and at each dose level. Total flux was higher for the higher dose level.

CCCCCC=CCC=CCCCCCCCCC(CCCCCCCCC=CCC=CCCCCC)OC(=O)CCCN(C)C (centres unmarked) [MC3, heptatriaconta-6,9,28,31-tetraen-19-yl 4-(dimethylamino)butanoate, reference compound]
AUC (p/s*h) [1]: 1.42E+11 p/s*h | Total flux (p/s) 0.001 mpk Dose 1 ([2]; 0.001 mpk, Dose 1): 1.23E+06 p/s | Total flux (p/s) 0.001 mpk Dose 2 ([2]; 0.001 mpk, Dose 2): 1.09E+06 p/s | Total flux (p/s) 0.01 mpk Dose 1 ([2]; 0.01 mpk, Dose 1): 1.79E+07 p/s | Total flux (p/s) 0.01 mpk Dose 2 ([2]; 0.01 mpk, Dose 2): 3.13E+07 p/s
